This passage reports EC50 and IC50 results from patent US12162848B2, “Inhibitors of protein tyrosine phosphatase, compositions, and methods of use” (BRISTOL-MYERS SQUIBB COMPANY, priority 2022, dated 2024).

Experiment [1] concerns phosphorylated STAT1 protein levels in B16-F10 cells. Description: Phospho-STAT1 (Tyr701) HTRF assay in IFN-gamma treated B16-F10 cells. In kind it is cell-based. Conditions: mouse IFN-gamma 100 ng/mL, 1 hour, read-out: pSTAT1 HTRF B16 EC50. In short, it runs like this:
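Mouse B16-F10 cells, 10,000/well, pretreated 1 h with compound (0.15% DMSO), then stimulated with mouse IFN-gamma at 100 ng/mL final for 1 h at 37 C. Phospho-STAT1 (Tyr701) measured by HTRF.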
(In TR-FRET formats the signal depends on donor and acceptor labels being close together.)

Experiment [2] concerns the target T1, PTPN2 enzyme (Homo sapiens, UniProt P17706).
T1 sequence (P17706 1-415): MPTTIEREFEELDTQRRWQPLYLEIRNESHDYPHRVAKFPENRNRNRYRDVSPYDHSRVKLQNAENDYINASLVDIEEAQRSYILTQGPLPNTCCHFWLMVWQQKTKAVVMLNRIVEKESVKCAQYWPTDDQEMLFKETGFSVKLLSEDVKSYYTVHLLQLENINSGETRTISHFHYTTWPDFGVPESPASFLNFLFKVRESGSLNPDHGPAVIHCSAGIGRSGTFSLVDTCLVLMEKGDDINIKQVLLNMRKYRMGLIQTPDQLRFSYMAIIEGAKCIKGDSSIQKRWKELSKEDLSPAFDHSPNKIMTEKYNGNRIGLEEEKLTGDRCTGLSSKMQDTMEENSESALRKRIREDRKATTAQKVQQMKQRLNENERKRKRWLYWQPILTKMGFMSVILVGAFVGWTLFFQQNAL
Description: PhosphoSens PTPN2 biochemical assay. The settings on record: substrate AQT0264 20 μM, room temperature; read-out: PTPN2 BCHEM IC50. In short, it runs like this: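 PhosphoSens fluorescence format with 20 μM final AQT0264 substrate and […] in 50 mM HEPES pH 7.5, 500 μM EGTA, […], 0.01% Brij-35, 1% glycerol, 1 mM DTT, 0.2 mg/mL BSA. Compounds in 3-fold dilution series; progress curves read (ex 360/em 480 nm) every 71 s for 1 h at room temperature.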

The test system of experiment [3] is B16-F10 cells. As to the kind of experiment: Cell proliferation assay (CellTiter-Glo) in IFN-gamma treated B16-F10 cells. The experiment is classed as cell-based. Conditions: 120 h, mouse IFN-gamma 10 ng/mL, read-out: PTPN2 Prolif 5d B16F10 EC50.

For `O=C1CN(c2c(O)cc(CNc3cc(F)ccc3Cl)cc2F)S(=O)(=O)N1` [EXAMPLE 80, 5-[4-[(2-chloro-5-fluoro-anilino)methyl]-2-fluoro-6-hydroxy-phenyl]-1,1-dioxo-1,2,5-thiadiazolidin-3-one], the EC50 in experiment [1] and in experiment [3] was at least 15 µM in each case. Further, in experiment [2], the concentration for half-maximal inhibition (IC50) was 0.05 µM.
As for `CC(C)CCN1CCN(c2cc(O)c(N3CC(=O)NS3(=O)=O)c(F)c2)CC1` [EXAMPLE 83, 5-(2-fluoro-6-hydroxy-4-(4-isopentylpiperazin-1-yl)phenyl)-1,2,5-thiadiazolidin-3-one 1,1-dioxide], the 50% effective concentration (EC50) in experiment [1] and in experiment [3] was at least 15 µM throughout. The half-maximal inhibitory concentration (IC50) in experiment [2] stood at 0.896 µM.
`NC1CCN(c2cc(O)c(N3CC(=O)NS3(=O)=O)c(F)c2)CC1` [EXAMPLE 84, 5-(4-(4-aminopiperidin-1-yl)-2-fluoro-6-hydroxyphenyl)-1,2,5-thiadiazolidin-3-one 1,1-dioxide]: the EC50 in experiment [1] and in experiment [3] was at least 15 µM throughout. In experiment [2], the IC50 was 0.745 µM.
Take `O=C1CN(c2c(O)cc(N3CCNCC3)cc2F)S(=O)(=O)N1` [EXAMPLE 85, 5-(2-fluoro-6-hydroxy-4-(piperazin-1-yl)phenyl)-1,2,5-thiadiazolidin-3-one 1,1-dioxide]: the concentration giving a half-maximal response (EC50) was 5.48 µM in experiment [1] and at least 15 µM in experiment [3]. Besides, in experiment [2], the half-maximal inhibitory concentration (IC50) is 0.682 µM.
In the same order, the values of `COCCN1CCN(c2cc(O)c(N3CC(=O)NS3(=O)=O)c(F)c2)CC1` [EXAMPLE 86, 5-(2-fluoro-6-hydroxy-4-(4-(2-methoxyethyl)piperazin-1-yl)phenyl)-1,2,5-thiadiazolidin-3-one 1,1-dioxide] are at least 15 µM, at least 15 µM and 0.336 µM.
Taken in the same sequence, the figures for `CN(C)C1CCN(c2cc(O)c(N3CC(=O)NS3(=O)=O)c(F)c2)CC1` [EXAMPLE 87, 5-(4-(4-(dimethylamino)piperidin-1-yl)-2-fluoro-6-hydroxyphenyl)-1,2,5-thiadiazolidin-3-one 1,1-dioxide] were at least 15 µM, at least 15 µM and 0.318 µM.
In the same order, the values of `CC(C)CCN1CCC(Nc2cc(O)c(N3CC(=O)NS3(=O)=O)c(F)c2)CC1` [EXAMPLE 89, 5-(2-fluoro-6-hydroxy-4-((1-isopentylpiperidin-4-yl)amino)phenyl)-1,2,5-thiadiazolidin-3-one 1,1-dioxide] are at least 15 µM, at least 15 µM and 0.757 µM.
In the case of `COCCN1CCC(Nc2cc(O)c(N3CC(=O)NS3(=O)=O)c(F)c2)CC1` [EXAMPLE 90, 5-(2-fluoro-6-hydroxy-4-((1-(2-methoxyethyl)piperidin-4-yl)amino)phenyl)-1,2,5-thiadiazolidin-3-one 1,1-dioxide], the concentration for a half-maximal effect (EC50) in experiment [1] and in experiment [3] was at least 15 µM throughout. Also, in experiment [2], the IC50 came out at 2.13 µM.
`CN1CCC(c2ccc(O)c(N3CC(=O)NS3(=O)=O)c2F)CC1` [EXAMPLE 106, 5-(2-fluoro-6-hydroxy-3-(1-methylpiperidin-4-yl)phenyl)-1,2,5-thiadiazolidin-3-one 1,1-dioxide]: the EC50 in experiment [1] and in experiment [3] was at least 15 µM in each case. Moreover, the IC50 in experiment [2] worked out at 4.47 µM.

One may read the EC50 as the concentration at which the effect is half-maximal. For orientation: IC50 means the concentration at which inhibition is half-maximal.
